Measurements as given in patent US20090087443A1, “Pharmacological Adjunctive Treatment Associated with Glaucoma Filtration Surgery” (priority 2007, published 2009).
Where “and” joins values, the source holds several entries; their conditions need not be identical. Identical values can stand only once. Entries after “also recorded” stand apart in the source; their conditions may differ. Like-named read-outs stand apart in the source and are kept apart here.

Columns and labels:
[1] = test system: neovascularization and angiogenesis in the rat cornea; settings: X. Xin et al., J. Biol. Chem. 274:9116-9121 (1999); cited from earlier work
[2] = test system: IL-1β-induced cytokine production in human corneal epithelial cells (HCECs); assay: IL-1β-stimulated cytokine production in primary human corneal epithelial cells (30-cytokine Luminex kit)
Procedure: Primary HCECs were seeded in 24-well plates. […] Each treatment was performed in triplicate. Media were collected and used for determination of cytokine content using a 30-cytokine Luminex kit. Cell viability was determined by alamarBlue assay (LP06013).
Median fluorescence intensity (MFI) was used to obtain the concentration of each cytokines in pg/ml based on the standard curve of each cytokine assayed by Luminex. The linear range of the standard curve for each cytokine was used for determination of cytokine concentration. Duplicate values for each sample were averaged. Data were expressed as mean±SD. Statistical analysis was performed using one-way ANOVA-Dunnett's test, and P<0.05 was considered statistically significant.

[3] = test system: New Zealand White rabbits; assay: Mortality/morbidity in the rabbit topical IOP study; format: in vivo; settings: for Mortality (number of animals found dead or euthanized prior to study completion/number of animals in group): right eye topical 4 × daily through Day 31, to Day 33
[4] = test system: Human Tenon's fibroblasts; assay: TGF-β stimulated cellular levels of collagen type I, α-smooth muscle actin and tissue transglutaminase (Western blot); format: cell-based; settings: TGF-β 5 ng/ml, 0.1, 1, 3, 5 or 10 μM, day 5, ratio to GAPDH
Procedure: Methods: Human Tenon's fibroblasts were seeded in 60 mm plates in 10% FBS MEM (fetal bovine serum/Eagle's minimum essential medium) and grown until approximately 90% confluency. After the cells were starved in 0.5% FBS MEM for approximately 72 hours, the media was changed to fresh 0.5% FBS MEM. […] Cells were harvested 1, 3 or 5 days later. They were washed twice with cold 1× PBS and scraped into 1×SDS sample buffer. Lysates were assayed for protein content using the DC protein assay kit from Bio-Rad. Equal amounts of protein from each sample were electrophoresed on a 7.5% Tris-glycine SDS gel. Proteins were transferred to a PVDF membrane, blocked and probed with one or more of the following antibodies: mouse monoclonal anti-α-smooth muscle actin Clone 1A4: (Sigma Aldrich, #A2547), mouse monoclonal anti-human GAPDH (6C5) (Santa Cruz Biotechnology, Inc., #sc-32233), goat anti-human collagen α1Type I (L-19) (Santa Cruz Biotechnology, Inc., #sc-8783), or mouse monoclonal anti-transglutaminase II Ab-3 (ClonesCUB7402+TG100) (NeoMarkers, # MS-300-P). Density of each band was measured densitometrically and the ratio to GADPH calculated.

[5] = test system: New Zealand White rabbits; assay: Slit-lamp ophthalmic observations (McDonald Shadduck scoring) in the rabbit topical IOP study; format: in vivo; set-up: key to Conjunctival Congestion Score, treated right eye: 1 = A flushed, reddish color predominantly confined to the palpebral conjunctiva with some perilimbal injection but primarily confined to the lower and upper parts of the eye from the 4:00 to 7:00 and 11:00 to 1:00 positions; key to Cornea Score, treated right eye: 1 = Some loss of transparency. Only the epithelium and/or the anterior half of the stoma are involved. The underlying structures are clearly visible although some cloudiness may be readily apparent; key to Ophthalmic Observation (Slit-Lamp), treated right eye, individual animals: AN = Appeared normal; settings: for Ophthalmic Observation (Slit-Lamp), treated right eye, individual animals: examination Days 5, 12, 22, 26, 33 as listed per animal (days without scored finding, until death)
Procedure: Prior to placement on study, each animal underwent a pre-treatment ophthalmic examination (slit lamp and indirect ophthalmoscopy). Observations were scored according to the McDonald Shadduck system and recorded using a standardized data collection sheet.
Ophthalmic examinations (slit lamp) were performed prior to the first dosing on Days 5, 12, 22, 26, and 33. Ocular findings were scored according to the McDonald Shadduck system and recorded using a standardized data collection sheet.

[6] = test system: fibroblasts; settings: cited from earlier work
[7] = 0.1% dexamethasone, 0.05 mg/dose 4 × daily (Group A)

## CCCCCC=CC=C1C(=O)C=C[C@@H]1CC=CCCCC(=O)O [15-deoxy-Δ-12,14-prostaglandin J2]
[1]
  Effect on neovascularization and angiogenesis in the rat cornea: inhibit

## Cc1ccc2c(NCC(O)(CC(C)(C)c3cc(F)cc4c3OCC4)C(F)(F)F)cccc2n1 (stereo not shown)
[2]
  Potency relative to dexamethasone for inhibition of IL-1β-stimulated production of IL-6, IL-7, TGF-α, TNF-α, VGEF, and MCP-1: comparable potency
  Potency relative to dexamethasone in inhibiting IL-1β-stimulated production of G-CSF: more potent than dexamethasone
  Potency relative to dexamethasone in inhibiting IL-1β-stimulated production of GM-CSF, IL-8, and RANTES: somewhat less potent than dexamethasone
[2]; 1 nM-10 μM, IL-1β 10 ng/ml, 18 h
  Effect on IL-1β-stimulated RANTES production: no significant effect
[3]
  Day of Death (day euthanized or found dead), individual rabbits: 29
[3]; 1 mg/g suspension, 0.05 mg/dose 4 × daily (Group D)
  Recorded Notes on mortality/morbidity, individual rabbits: Found dead.
[3]; 1 mg/g suspension, 0.05 mg/dose
  Mortality (number of animals found dead or euthanized prior to study completion/number of animals in group): one of ten and 1/10^(6)
[3]; 10 mg/g suspension, 0.5 mg/dose 4 × daily (Group B)
  Day of Death (day euthanized or found dead), individual rabbits: 11
[3]; 10 mg/g suspension, 0.5 mg/dose
  Mortality (number of animals found dead or euthanized prior to study completion/number of animals in group): one of ten and 1/10^(4)
[4]
  Effect on TGF-β-induced cellular level of collagen type I: inhibitory effect that appeared dose-related; also recorded: inhibit
  Effect on TGF-β-induced cellular level of tissue transglutaminase: inhibitory effect that appeared dose-related; also recorded: inhibit
  Effect on TGF-β-induced cellular level of α-smooth muscle actin: inhibitory effect that appeared dose-related; also recorded: inhibit
[5]; 1 mg/g suspension 4 × daily, animal No. 3040, Day 22
  Conjunctival Congestion Score, treated right eye: 1
[5]; 1 mg/g suspension 4 × daily
  Ophthalmic Observation (Slit-Lamp), treated right eye, individual animals: AN
[5]; 1 mg/g suspension, Group D, No. 3043
  Other slit-lamp finding in dosed right eye: subconjunctival hemorrhage
[5]; 5 mg/g suspension 4 × daily, animal No. 3031, Day 22
  Conjunctival Congestion Score, treated right eye: 1
[5]; 5 mg/g suspension 4 × daily, animal No. 3035, Days 22, 26
  Conjunctival Congestion Score, treated right eye: 1
[5]; 5 mg/g suspension 4 × daily, animal No. 3064, Day 5
  Conjunctival Congestion Score, treated right eye: 1
[5]; 5 mg/g suspension 4 × daily, animal No. 3074, Day 26
  Conjunctival Congestion Score, treated right eye: 1
[5]; 5 mg/g suspension 4 × daily
  Ophthalmic Observation (Slit-Lamp), treated right eye, individual animals: AN
[5]; 10 mg/g suspension 4 × daily, animal No. 3003, Day 12
  Conjunctival Congestion Score, treated right eye: 1
[5]; 10 mg/g suspension 4 × daily, animal No. 3017, Days 5, 12
  Conjunctival Congestion Score, treated right eye: 1
[5]; 10 mg/g suspension 4 × daily, animal No. 3042, Day 26
  Conjunctival Congestion Score, treated right eye: 1
[5]; 10 mg/g suspension 4 × daily, animal No. 3083, Day 5
  Surface area of cornea involvement Score, treated right eye: 1 (1 = 1-25% area of stromal cloudiness.)
[5]; 10 mg/g suspension 4 × daily, animal No. 3083, Day 5, pinpoint corneal scar
  Cornea Score, treated right eye: 1^(2)
[5]; 10 mg/g suspension 4 × daily
  Ophthalmic Observation (Slit-Lamp), treated right eye, individual animals: AN
[5]; 10 mg/g suspension, Group B, No. 3083
  Other slit-lamp finding in dosed right eye: pinpoint corneal scar

## C[C@@H]1C[C@H]2[C@@H]3CCC4=CC(=O)C=C[C@]4(C)[C@@]3(F)[C@@H](O)C[C@]2(C)[C@@]1(O)C(=O)CO [dexamethasone, reference compound]
[3]; 0.1% dexamethasone (Maxidex), 0.05 mg/dose
  Mortality (number of animals found dead or euthanized prior to study completion/number of animals in group): Six of ten
[3]; 0.1% dexamethasone (Maxidex), 0.05 mg/dose, listed as Dexamethasone
  Mortality (number of animals found dead or euthanized prior to study completion/number of animals in group): 6/10^(3)
[3]; [7]
  Day of Death (day euthanized or found dead), individual rabbits: 25 (2×) and 27 (2×) and 23 and 13
  Recorded Notes on mortality/morbidity, individual rabbits: Euthanized due to severe profuse hemorrhagic diarrhea; also recorded: Found dead. No rigor mortis present
[3]; dexamethasone 0.05 mg/dose 4 × daily up to 31 days
  Mortality rate: 6 deaths per 10 rabbits
[5]; 0.1% dexamethasone 4 × daily, animal No. 3016, Day 5
  Conjunctival Congestion Score, treated right eye: 1
[5]; 0.1% dexamethasone 4 × daily, animal No. 3081, Day 22
  Conjunctival Congestion Score, treated right eye: 1
[5]; 0.1% dexamethasone 4 × daily
  Ophthalmic Observation (Slit-Lamp), treated right eye, individual animals: AN

B1: Prolactin: antagonist to at least one TGF-β isoform (protein, UniProt P01236 29-227, looked up)
Prolactin: LPICPGGAARCQVTLRDLFDRAVVLSHYIHNLSSEMFSEFDKRYTHGRGFITKAINSCHTSSLATPEDKEQAQQMNQKDFLSLIVSILRSWNEPLYHLVTEVRGMQEAPEAILSKAVEIEEQTKRLLEGMELIVSQVHPETKENEIYPVWSGLPSLQMADEESRLSAYYNLLHCLRRDSHKIDNYLKLLKCRIIHNNNC
[6]
  Effect on the chemotaxis of fibroblasts: inhibit
